Measurements reported in patent US20230233555A1 (AbbVie Inc., priority 2022, published 2023).
Entries after “also recorded” stand apart in the source; their conditions may differ.

Columns and labels:
CYP3A4 = CYP3A4 (Homo sapiens, UniProt P08684); assay: In vitro metabolism / substrate assessment, CYP3A4; assay type: in vitro ADME
CYP2D6 = CYP2D6 (Homo sapiens, UniProt P10635); assay: In vitro metabolism / substrate assessment, CYP2D6; assay type: in vitro ADME
P-gp, BCRP = assay: In vitro transporter substrate assessment, P-gp and BCRP; assay type: in vitro ADME
CYP3A4, CYP2B6, CYP1A2 = assay: In vitro CYP induction; assay type: in vitro ADME
[1] = test system: P-gp, BCRP, BSEP, OATP1B1, OATP1B3, OCT1, OCT2, OAT1, OAT3, MATE1, MATE2K; assay: In vitro transporter inhibition; assay type: in vitro ADME; conditions: clinically relevant concentrations
[2] = Plasma protein binding and blood to plasma partitioning; assay type: in vitro ADME; conditions: human, read-out: Bound to plasma proteins (converted)
[3] = Hepatic impairment pharmacokinetic study; assay type: in vivo, human
Solubility in water = assay type: physicochemical; conditions: aqueous buffer, pH range of 2 to 9 at 37° C.
Text: The strength of upadacitinib is based on anhydrous upadacitinib. […]

pregnant rabbits = assay: Oral embryo-fetal developmental study in rabbits; assay type: in vivo
pregnant female rats = assay: Oral pre- and post-natal development study in rats; assay type: in vivo; conditions: GD 6 through lactation day 20, AUC basis, 10 mg/kg/day
Sprague-Dawley rats = assay: Carcinogenicity study in Sprague-Dawley rats; assay type: in vivo, rat; conditions: for Exposure multiple at top dose without tumorigenicity: AUC basis
rat bone marrow = assay: In vivo rat bone marrow micronucleus assay
[4] = human, in vivo
[5] = test system: patients with rheumatoid arthritis; conditions: in vivo
Text: (§1) Exposure adjusted incidence rates were adjusted by trial for all the adverse events reported in this section.
(§2) Patients 18 years of age and older were eligible to participate. The presence of at least 6 tender and 6 swollen joints and evidence of systemic inflammation based on elevation of hsCRP was required at baseline.

clinical = conditions: human, in vivo
pregnant rats = assay: Oral embryo-fetal development studies in rats
[6] = test system: patients with rheumatoid arthritis; assay: Rheumatoid arthritis Phase 3 trials, integrated datasets (RA-I to RA-V)
Text: as §1, §2

[7] = 12-month exposure dataset (RA-I, II, III, V), 30 mg
[8] = MTX-controlled RA-I and RA-II, 12/14 weeks, 30 mg monotherapy
[9] = RA-III and RA-V placebo-controlled, 12 weeks, 30 mg

Sequence of CYP3A4 (P08684 whole entry): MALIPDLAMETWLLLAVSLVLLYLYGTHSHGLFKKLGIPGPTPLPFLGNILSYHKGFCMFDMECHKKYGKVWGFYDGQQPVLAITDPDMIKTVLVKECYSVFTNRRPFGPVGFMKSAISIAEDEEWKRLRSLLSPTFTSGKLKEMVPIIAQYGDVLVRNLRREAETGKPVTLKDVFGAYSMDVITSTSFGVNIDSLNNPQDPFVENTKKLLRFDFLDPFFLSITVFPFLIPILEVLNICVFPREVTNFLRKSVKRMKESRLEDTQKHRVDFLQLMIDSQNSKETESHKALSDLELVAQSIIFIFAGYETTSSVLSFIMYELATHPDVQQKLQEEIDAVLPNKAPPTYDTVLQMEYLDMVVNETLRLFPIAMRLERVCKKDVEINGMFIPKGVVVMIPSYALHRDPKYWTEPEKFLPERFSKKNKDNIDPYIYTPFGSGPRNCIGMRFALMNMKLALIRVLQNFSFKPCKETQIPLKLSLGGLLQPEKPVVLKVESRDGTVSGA
Sequence of CYP2D6 (P10635 whole entry): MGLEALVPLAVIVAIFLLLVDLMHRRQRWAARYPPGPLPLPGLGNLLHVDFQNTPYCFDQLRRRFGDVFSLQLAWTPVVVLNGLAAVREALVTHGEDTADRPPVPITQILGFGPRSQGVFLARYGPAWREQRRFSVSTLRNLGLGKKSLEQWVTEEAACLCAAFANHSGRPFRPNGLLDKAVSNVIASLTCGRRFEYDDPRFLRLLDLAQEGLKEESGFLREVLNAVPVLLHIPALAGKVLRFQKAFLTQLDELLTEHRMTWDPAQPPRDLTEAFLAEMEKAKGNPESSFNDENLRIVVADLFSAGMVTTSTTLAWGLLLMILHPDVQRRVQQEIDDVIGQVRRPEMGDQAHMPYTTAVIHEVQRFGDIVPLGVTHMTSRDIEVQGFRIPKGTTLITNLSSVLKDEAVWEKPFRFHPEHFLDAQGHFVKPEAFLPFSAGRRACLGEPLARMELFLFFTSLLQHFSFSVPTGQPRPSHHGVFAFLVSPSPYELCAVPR

## CC[C@@H]1CN(C(=O)NCC(F)(F)F)C[C@@H]1c1cnc2cnc3[nH]ccc3n12 [upadacitinib, (3S,4R)-3-Ethyl-4-(3H-imidazo[1,2-a]pyrrolo[2,3-e]pyrazin-8-yl)-N-(2,2,2-trifluoroethyl)pyrrolidine-1-carboxamide hydrate (2:1)]
CYP3A4
  Substrate of / metabolised by CYP3A4: substrate; also recorded: mediated by mainly CYP3A4; also recorded: metabolized in vitro by CYP3A4
CYP2D6
  Substrate of / metabolised by CYP2D6: substrate; also recorded: potential minor contribution from CYP2D6
P-gp, BCRP
  Substrate of P-gp and BCRP: substrate
CYP3A4, CYP2B6, CYP1A2
  Induction of CYP1A2: borderline
  Induction of CYP3A4 and CYP2B6: inducer
[1]
  Inhibition of transporters (P-gp, BCRP, OATP1B1, OATP1B3, OCT1, OCT2, OAT1, OAT3, MATE1, MATE2K): does not inhibit; also recorded: no in vivo relevant inhibition
[2]
  fraction unbound: 0.48
[3]; mild hepatic impairment
  Cmax vs normal liver function: unchanged
[3]; mild hepatic impairment (Child-Pugh A)
  AUC (AUCinf) higher vs normal hepatic function: 28%
[3]; moderate hepatic impairment
  Cmax higher vs normal liver function: 43%
[3]; moderate hepatic impairment (Child-Pugh B)
  AUC (AUCinf) higher vs normal hepatic function: 24%
Solubility in water
  solubility: ≤ 38 mg/mL
Pregnant rabbits
  Exposure multiple with developmental toxicity (cardiovascular malformations, post-implantation loss, decreased fetal body weights): ≥ 17 times the 15 mg dose
Pregnant rabbits; organogenesis
  Exposure multiple with no developmental toxicity: ~2.5 times the 15 mg dose
Pregnant female rats
  Exposure multiple with no maternal or developmental toxicity: approximately 1.6 times the MRHD of 30 mg
Sprague-Dawley rats; female rats, 20 mg/kg/day
  Exposure multiple at top dose without tumorigenicity: ~6.0 times the MRHD of 30 mg
Sprague-Dawley rats; male rats, 15 mg/kg/day
  Exposure multiple at top dose without tumorigenicity: approximately 2.4 times the MRHD of 30 mg
Sprague-Dawley rats; up to 101 weeks, oral up to 15 (male) or 20 (female) mg/kg/day
  Tumorigenicity: No evidence of tumorigenicity
Rat bone marrow
  Genotoxicity, bone marrow micronucleus: tested negatively
[4]
  AUCinf increase with high-fat/high-calorie meal: 29%
  Accumulation after multiple once-daily administrations: minimal accumulation
  Cmax increase with high-fat/high-calorie meal: 39%
  Contribution of renal secretion to elimination: ≤ 25%
  Dose proportionality of plasma exposures: proportional to dose
  Time to steady-state plasma concentrations: ≤ 4 days
[5]
  Hemoglobin decreases below 8 g/dL in at least one measurement, patients: none
  Lipid changes with treatment: dose-related increases in total cholesterol, triglycerides and LDL cholesterol
  Time of peak elevations in LDL and HDL cholesterol: ≤ 8 Week
clinical
  half-life: 8 to 14 h
clinical; po
  Tmax: 2 to 4 h
Pregnant rats; AUC basis, 75 mg/kg/day
  Exposure multiple with additional skeletal malformations and decreased fetal body weights, no maternal toxicity: approximately 48 times the MRHD of 30 mg
Pregnant rats; GD 6 to 17, AUC basis, 5 mg/kg/day and higher
  Exposure multiple with teratogenicity (misshapen humerus, bent scapula): ≥ 1.0 times the MRHD of 30 mg
Pregnant rats; oral
  Exposure multiple with developmental toxicity (skeletal malformations, decreased fetal body weights): ≥ 2 times the 15 mg dose
Pregnant rats; oral, organogenesis
  Exposure multiple with no developmental toxicity: approximately 0.3 times the 15 mg dose
[6]; [7]
  Opportunistic infections (excluding tuberculosis), number of patients: 15 patients
  Opportunistic infections (excluding tuberculosis), rate: 1.4 per 100 patient-years
[6]; 12-month exposure dataset, 30 mg
  Active tuberculosis, number of patients: 1 patient
[6]; [8]
  Opportunistic infections (excluding tuberculosis), number of patients: 4 patients
  Opportunistic infections (excluding tuberculosis), rate: 3.2 per 100 patient-years
[6]; RA MTX-controlled period, 30 mg monotherapy
  Active tuberculosis cases: no active cases
[6]; RA patients, controlled period
  Change in mean IgG and IgM levels from baseline: small decreases
[6]; RA patients, up to Week 36
  Change in mean ALC from baseline: small, transient increase
[6]; RA placebo-controlled period, 30 mg
  Active tuberculosis cases: no active cases
[6]; [9]
  Opportunistic infections (excluding tuberculosis), number of patients: 6 patients
  Opportunistic infections (excluding tuberculosis), rate: 7.1 per 100 patient-years
